Measured values from patent publication US20250197372A1 (priority 2020, published 2025).

Assays:
[1] = target: T1, recombinant alpha-glucosidase I (human full-length glucosidase I, Glu 1) (Homo sapiens, UniProt Q13724); assay: Alpha-glucosidase I assay (Amplex Red glucose detection, synthetic trisaccharide substrate); format: biochemical; details: Glucosidase 1; read-out: Glu 1 IC50
T1 construct: 6-His (C); made in house; host or cells: HEK-293T cells transduced with BacMam virus (virus raised in Sf9)
T1 sequence (Q13724 1-837): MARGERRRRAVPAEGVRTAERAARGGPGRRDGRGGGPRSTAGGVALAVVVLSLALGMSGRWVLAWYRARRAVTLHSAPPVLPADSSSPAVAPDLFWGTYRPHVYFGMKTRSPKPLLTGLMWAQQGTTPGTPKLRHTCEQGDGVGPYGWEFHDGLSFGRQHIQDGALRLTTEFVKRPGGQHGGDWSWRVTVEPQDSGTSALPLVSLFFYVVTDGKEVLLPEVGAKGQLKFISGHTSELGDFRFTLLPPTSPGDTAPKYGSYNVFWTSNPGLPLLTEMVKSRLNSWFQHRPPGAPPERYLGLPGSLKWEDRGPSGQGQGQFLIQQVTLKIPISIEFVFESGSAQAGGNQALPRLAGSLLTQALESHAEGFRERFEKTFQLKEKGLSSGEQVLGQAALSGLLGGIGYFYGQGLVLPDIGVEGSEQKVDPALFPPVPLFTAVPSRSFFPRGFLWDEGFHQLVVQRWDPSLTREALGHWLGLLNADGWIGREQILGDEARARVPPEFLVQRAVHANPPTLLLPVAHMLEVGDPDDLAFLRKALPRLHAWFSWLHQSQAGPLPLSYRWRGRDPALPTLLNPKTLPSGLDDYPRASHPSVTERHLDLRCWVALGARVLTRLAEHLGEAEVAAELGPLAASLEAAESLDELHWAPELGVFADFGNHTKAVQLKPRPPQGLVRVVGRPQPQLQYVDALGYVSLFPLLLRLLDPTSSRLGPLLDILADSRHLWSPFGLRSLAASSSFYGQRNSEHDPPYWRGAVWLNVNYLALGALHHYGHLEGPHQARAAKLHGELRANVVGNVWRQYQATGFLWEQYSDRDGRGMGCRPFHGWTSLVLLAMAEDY
Outline: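 Compound dilution series incubated 60 min at 37° C with recombinant His-tagged human glucosidase I ([…]), after which trisaccharide substrate analog was added for 90 min at 37° C. Reaction quenched with 1.5M Tris pH 8; D-glucose detected by Amplex Red fluorescence, 560/590 nm. 4-PL curve fit of percent inhibition gave IC50.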

[2] = target: rat sucrase (partially purified alpha-glucosidase from intestinal rat powder) (Rattus norvegicus, UniProt P23739); assay: Intestinal alpha-glucosidase assay, sucrose substrate (Glucose GO Kit); format: biochemical
Chain of rat sucrase (partially purified alpha-glucosidase from intestinal rat powder) (P23739 whole entry): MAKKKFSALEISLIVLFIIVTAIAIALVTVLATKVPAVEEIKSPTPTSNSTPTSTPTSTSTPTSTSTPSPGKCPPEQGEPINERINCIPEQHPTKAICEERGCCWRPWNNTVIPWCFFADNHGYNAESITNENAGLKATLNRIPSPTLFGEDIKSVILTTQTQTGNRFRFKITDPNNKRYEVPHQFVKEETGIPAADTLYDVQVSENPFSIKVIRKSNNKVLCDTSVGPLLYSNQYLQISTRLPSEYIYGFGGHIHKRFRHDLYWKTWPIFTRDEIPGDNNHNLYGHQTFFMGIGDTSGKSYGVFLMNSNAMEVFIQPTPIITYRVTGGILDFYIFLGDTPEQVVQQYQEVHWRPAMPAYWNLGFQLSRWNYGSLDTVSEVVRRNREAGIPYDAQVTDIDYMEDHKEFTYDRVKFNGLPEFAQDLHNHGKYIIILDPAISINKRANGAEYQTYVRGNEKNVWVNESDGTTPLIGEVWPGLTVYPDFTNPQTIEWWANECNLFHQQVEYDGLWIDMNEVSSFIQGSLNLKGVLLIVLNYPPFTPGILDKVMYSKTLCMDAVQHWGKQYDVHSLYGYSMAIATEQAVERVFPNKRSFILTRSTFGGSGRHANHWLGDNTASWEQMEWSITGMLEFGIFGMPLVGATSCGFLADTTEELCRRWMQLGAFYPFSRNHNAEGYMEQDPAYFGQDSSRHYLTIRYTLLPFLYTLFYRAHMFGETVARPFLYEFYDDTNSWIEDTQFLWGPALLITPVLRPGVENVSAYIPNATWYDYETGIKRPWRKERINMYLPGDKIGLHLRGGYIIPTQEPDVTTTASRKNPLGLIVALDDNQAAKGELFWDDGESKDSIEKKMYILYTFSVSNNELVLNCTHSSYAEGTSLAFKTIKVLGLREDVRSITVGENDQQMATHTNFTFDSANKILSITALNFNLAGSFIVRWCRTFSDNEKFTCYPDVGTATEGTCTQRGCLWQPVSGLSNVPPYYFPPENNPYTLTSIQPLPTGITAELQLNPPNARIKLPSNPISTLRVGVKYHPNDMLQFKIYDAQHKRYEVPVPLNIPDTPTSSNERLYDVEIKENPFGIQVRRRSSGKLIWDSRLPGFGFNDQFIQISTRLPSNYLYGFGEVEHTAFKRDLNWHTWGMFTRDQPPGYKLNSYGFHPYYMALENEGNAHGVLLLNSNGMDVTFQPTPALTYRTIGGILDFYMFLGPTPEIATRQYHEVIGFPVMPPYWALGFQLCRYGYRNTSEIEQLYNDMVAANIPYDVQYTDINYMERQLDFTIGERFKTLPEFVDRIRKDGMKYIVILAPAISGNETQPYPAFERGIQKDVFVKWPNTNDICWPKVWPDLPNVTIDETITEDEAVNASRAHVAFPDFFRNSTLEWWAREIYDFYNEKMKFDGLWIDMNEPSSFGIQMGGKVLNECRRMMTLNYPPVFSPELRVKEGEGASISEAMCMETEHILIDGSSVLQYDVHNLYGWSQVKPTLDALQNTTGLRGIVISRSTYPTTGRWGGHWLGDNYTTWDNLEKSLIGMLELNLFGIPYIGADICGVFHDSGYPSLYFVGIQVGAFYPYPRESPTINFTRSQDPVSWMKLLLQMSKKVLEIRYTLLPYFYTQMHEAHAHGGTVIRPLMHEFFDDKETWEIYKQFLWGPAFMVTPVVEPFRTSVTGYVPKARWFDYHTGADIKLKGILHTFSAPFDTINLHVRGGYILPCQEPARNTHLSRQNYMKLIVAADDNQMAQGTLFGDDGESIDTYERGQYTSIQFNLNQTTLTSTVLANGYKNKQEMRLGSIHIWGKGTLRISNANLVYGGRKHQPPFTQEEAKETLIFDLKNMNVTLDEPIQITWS
Outline: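 First step: 60 min, 37 °C, compound with partially purified rat intestinal alpha-glucosidase. Next, maltose or sucrose for 30 min at 37 °C, ended at 90 °C for 5 min. Glucose quantified enzymatically; concentration–inhibition data fitted 4-PL for IC50.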

SMILES	IC50 [1] [nM]	IC50 [2] [nM]
NC(=O)CCN(CCNc1ccc(-c2ncccn2)cc1[N+](=O)[O-])CCN1C[C@H](O)[C@@H](O)[C@H](O)[C@H]1CO [Compound 1226, 3-[(2-{[2-nitro-4-(pyrimidin-2-yl)phenyl]amino}ethyl)({2-[(2R,3R,4R,5S)-3,4,5-trihydroxy-2-(hydroxymethyl)piperidin-1-yl]ethyl})amino]propanamide]	9530	793
O=S(=O)(Nc1cc(-c2ncccn2)ccc1NCCCCCCN1C[C@H](O)[C@@H](O)[C@H](O)[C@H]1CO)C1CC1 [Compound 1227, N-[5-(pyrimidin-2-yl)-2-({6-[(2R,3R,4R,5S)-3,4,5-trihydroxy-2-(hydroxy-methyl)piperidin-1-yl]hexyl}amino)phenyl]cyclopropanesulfonamide]	169	104
OC[C@@H]1[C@@H](O)[C@H](O)[C@@H](O)CN1CCCCCCNc1ccc(-c2ncccn2)cc1Cl [Compound 1228, (2R,3R,4R,5S)-1-(6-{[2-chloro-4-(pyrimidin-2-yl)phenyl]amino}hexyl)-2-(hydroxymethyl)piperidine-3,4,5-triol]	19	61
OC[C@@H]1[C@@H](O)[C@H](O)[C@@H](O)CN1CCCCCCNc1ccc(-c2ncccn2)cc1F [Compound 1229, (2R,3R,4R,5S)-1-(6-{[2-fluoro-4-(pyrimidin-2-yl)phenyl]amino}hexyl)-2-(hydroxymethyl)piperidine-3,4,5-triol]	94	70
COc1cc(-c2ncccn2)ccc1NCCCCCCN1C[C@H](O)[C@@H](O)[C@H](O)[C@H]1CO [Compound 1231, (2R,3R,4R,5S)-2-(hydroxymethyl)-1-(6-{[2-methoxy-4-(pyrimidin-2-yl)phenyl]amino}hexyl)piperidine-3,4,5-triol]	187	67
Cc1cc(-c2ncccn2)ccc1NCCCCCCN1C[C@H](O)[C@@H](O)[C@H](O)[C@H]1CO [Compound 1233, (2R,3R,4R,5S)-2-(hydroxymethyl)-1-(6-{[2-methyl-4-(pyrimidin-2-yl)phenyl]amino}hexyl)piperidine-3,4,5-triol]	123	130
[N-]=[N+]=Nc1ccc(NCCN(CCC(N)=O)CCN2C[C@H](O)[C@@H](O)[C@H](O)[C@H]2CO)c([N+](=O)[O-])c1 [Compound 1235]	8110	8650
CN(C)Cc1ccc(NCCCCCCN2C[C@H](O)[C@@H](O)[C@H](O)[C@H]2CO)c(F)c1 [Compound 1236, (2R,3R,4R,5S)-1-[6-({4-[(dimethylamino)methyl]-2-fluorophenyl}amino)hexyl]-2-(hydroxymethyl)piperidine-3,4,5-triol]	296	254
Nc1ccc(NCCc2ccccc2CCN2C[C@H](O)[C@@H](O)[C@H](O)[C@H]2CO)c([N+](=O)[O-])c1Cl [Compound 1239, (2R,3R,4R,5S)-1-[2-(2-{2-[(4-amino-3-chloro-2-nitrophenyl)amino]ethyl}phenyl)ethyl]-2-(hydroxymethyl)piperidine-3,4,5-triol]	1440	294
[N-]=[N+]=Nc1ccc(NCCc2cccc(CCN3C[C@H](O)[C@@H](O)[C@H](O)[C@H]3CO)c2)c([N+](=O)[O-])c1 [Compound 1240, (2R,3R,4R,5S)-1-[2-(3-{2-[(4-azido-2-nitrophenyl)amino]ethyl}phenyl)ethyl]-2-(hydroxymethyl)piperidine-3,4,5-triol]	283	318
CN(C)Cc1ccc(NCCCCCCN2C[C@H](O)[C@@H](O)[C@H](O)[C@H]2CO)c(C(=O)O)c1 [Compound 1245, 5-[(dimethylamino)methyl]-2-({6-[(2R,3R,4R,5S)-3,4,5-trihydroxy-2-(hydroxymethyl)piperidin-1-yl]hexyl}amino)benzoic acid]	292	120
Cc1nc(=O)c2cc(-c3ncccn3)ccc2n1CCCCCCN1C[C@H](O)[C@@H](O)[C@H](O)[C@H]1CO [Compound 1246, 2-methyl-6-(pyrimidin-2-yl)-1-{6-[(2R,3R,4R,5S)-3,4,5-trihydroxy-2-(hydroxymethyl)piperidin-1-yl]hexyl}-1,4-dihydroquinazolin-4-one]	112	> 100000
CS(C)=NS(=O)(=O)c1cc(-c2ncccn2)ccc1NCCCCCCN1C[C@H](O)[C@@H](O)[C@H](O)[C@H]1CO [Compound 1247, N-(dimethyl-2-sulfanylidene)-5-(pyrimidin-2-yl)-2-({6-[(2R,3R,4R,5S)-3,4,5-trihydroxy-2-(hydroxymethyl)piperidin-1-yl]hexyl}amino)benzene-1-sulfonamide]	493	216
[N-]=[N+]=Nc1ccc(NCCc2ccccc2CCN2C[C@H](O)[C@@H](O)[C@H](O)[C@H]2CO)c([N+](=O)[O-])c1 [Compound 1249]	2450	1870
N#Cc1ccc(F)cc1NCCCCCCN1C[C@H](O)[C@@H](O)[C@H](O)[C@H]1CO [Compound 1251, 4-fluoro-2-({6-[(2R,3R,4R,5S)-3,4,5-trihydroxy-2-(hydroxymethyl)piperidin-1-yl]hexyl}amino)benzonitrile]	226	38
[N-]=[N+]=Nc1ccc(N2CC(OCCN3C[C@H](O)[C@@H](O)[C@H](O)[C@H]3CO)C2)c([N+](=O)[O-])c1 [Compound 1252, (2R,3R,4R,5S)-1-(2-{[1-(4-azido-2-nitrophenyl)azetidin-3-yl]oxy}ethyl)-2-(hydroxymethyl)piperidine-3,4,5-triol]	1350	80
Nc1ccc(NCCn2cc(CCN3C[C@H](O)[C@@H](O)[C@H](O)[C@H]3CO)nn2)c([N+](=O)[O-])c1Cl [Compound 1253, (2R,3R,4R,5S)-1-[2-(1-{2-[(4-amino-3-chloro-2-nitrophenyl)amino]ethyl}-1H-1,2,3-triazol-4-yl)ethyl]-2-(hydroxymethyl)piperidine-3,4,5-triol]	1750	3440
[N-]=[N+]=Nc1ccc(N2CCN(CCN3C[C@H](O)[C@@H](O)[C@H](O)[C@H]3CO)CC2)c([N+](=O)[O-])c1 [Compound 1254, (2R,3R,4R,5S)-1-{2-[4-(4-azido-2-nitrophenyl)piperazin-1-yl]ethyl}-2-(hydroxymethyl)piperidine-3,4,5-triol]	6770	6530
[N-]=[N+]=Nc1ccc(NCCOCCN2C[C@H](O)[C@@H](O)[C@H](O)[C@H]2CO)c([N+](=O)[O-])c1 [Compound 1255, (2R,3R,4R,5S)-1-(2-{2-[(4-azido-2-nitrophenyl)amino]ethoxy}ethyl)-2-(hydroxymethyl)piperidine-3,4,5-triol]	2010	56
N#Cc1cc(-c2ncccn2)ccc1NCCCCCCN1C[C@H](O)[C@@H](O)[C@H](O)[C@H]1CO [Compound 1256, 5-(pyrimidin-2-yl)-2-({6-[(2R,3R,4R,5S)-3,4,5-trihydroxy-2-(hydroxymethyl)piperidin-1-yl]hexyl}amino)benzonitrile]	90	88
CN(C)Cc1ccc(NCCCCCCN2C[C@H](O)[C@@H](O)[C@H](O)[C@H]2CO)c(C#N)c1 [Compound 1257, 5-[(dimethylamino)methyl]-2-({6-[(2R,3R,4R,5S)-3,4,5-trihydroxy-2-(hydroxymethyl)piperidin-1-yl]hexyl}amino)benzonitrile]	115	70
OC[C@@H]1[C@@H](O)[C@H](O)[C@@H](O)CN1CCCCCCNc1ccc(-c2ncccn2)cc1C(F)(F)F [Compound 1258, (2R,3R,4R,5S)-2-(hydroxymethyl)-1-(6-{[4-(pyrimidin-2-yl)-2-(trifluoromethyl)phenyl]amino}hexyl)piperidine-3,4,5-triol]	32	108
CN(C)Cc1ccc(NCCCCCCN2C[C@H](O)[C@@H](O)[C@H](O)[C@H]2CO)c(C(F)(F)F)c1 [Compound 1259, (2R,3R,4R,5S)-1-[6-({4-[(dimethylamino)methyl]-2-(trifluoromethyl)phenyl}amino)hexyl]-2-(hydroxymethyl)piperidine-3,4,5-triol]	330	417
NS(=O)(=O)c1cc(-c2ncccn2)ccc1NCCCCCCN1C[C@H](O)[C@@H](O)[C@H](O)[C@H]1CO [Compound 1265, 5-(pyrimidin-2-yl)-2-({6-[(2R,3R,4R,5S)-3,4,5-trihydroxy-2-(hydroxymethyl)piperidin-1-yl]hexyl}amino)benzene-1-sulfonamide]	282	98
